21 molecules from US11155544B2, “Heterocycle comprising tyrosine kinase inhibitors” (Principia Biopharma Inc., priority 2015, dated 2021) can be followed below.

Assay [1] deals with human recombinant BTK (Homo sapiens (Human), UniProt Q06187). The experiment in a line: BTK Enzymatic Activity Assay (Caliper-based kinase assay). The assay is classed as biochemical. The settings on record: human recombinant BTK (0.5 nM), ATP (16 μM), peptide substrate (1 μM), room temperature for 3 h. How it is done:
A Caliper-based kinase assay (Caliper Life Sciences, Hopkinton, Mass.) was used to measure inhibition of BTK kinase activity of a compound of the present disclosure. Serial dilutions of test compounds were incubated with human recombinant BTK (0.5 nM), ATP (16 μM) and a phosphoacceptor peptide substrate FAM-GEEPLYWSFPAKKK-NH2 (1 μM) at room temperature for 3 h. The reaction was then terminated with EDTA, final concentration 20 mM and the phosphorylated reaction product was quantified on a Caliper Desktop Profiler (Caliper LabChip 3000). Percent inhibition was calculated for each compound dilution and the concentration that produced 50% inhibition was calculated. This value is presented as the IC50.

Assay [2] deals with CD69 expression. The assay is described as follows: Blockade of CD69 Expression in Human Whole Blood Samples. The format is cell-based. The settings on record: 30 minutes pre-incubation, activation with anti-IgM, cells gated on CD20, CD69 by FACS. On the procedure: Activation of the B cell receptor leads to increased BTK activity, calcium mobilization and B cell activation (see Honigberg L. A., et. al., Proc Natl Acad Sci USA. 107:13075-80. 2010). […] CD69 was expressed following B cell activation as a measure of BTK activity in whole blood. Aliquots of whole blood were pre-incubated with serial dilutions of test compound for 30 minutes followed by activation with anti-IgM (goat Fab′ 2, 50 μg/ml). Samples were incubated overnight at 37° C. and then stained with PE labeled anti-CD20 and APC labeled anti-CD69 (BD Pharmingen) for 30 minutes according to the manufacturer's directions. Whole blood was then lysed and cells gated on CD20 expression were quantified for CD 69 expression by FACS. The percent inhibition was calculated based on a DMSO control for no inhibition and plotted as a function of test compound concentration from which an IC50 value was calculated.
For orientation: Flow cytometry measures light scatter and fluorescence of single cells or particles in a stream.

Chain of human recombinant BTK (Q06187 whole entry): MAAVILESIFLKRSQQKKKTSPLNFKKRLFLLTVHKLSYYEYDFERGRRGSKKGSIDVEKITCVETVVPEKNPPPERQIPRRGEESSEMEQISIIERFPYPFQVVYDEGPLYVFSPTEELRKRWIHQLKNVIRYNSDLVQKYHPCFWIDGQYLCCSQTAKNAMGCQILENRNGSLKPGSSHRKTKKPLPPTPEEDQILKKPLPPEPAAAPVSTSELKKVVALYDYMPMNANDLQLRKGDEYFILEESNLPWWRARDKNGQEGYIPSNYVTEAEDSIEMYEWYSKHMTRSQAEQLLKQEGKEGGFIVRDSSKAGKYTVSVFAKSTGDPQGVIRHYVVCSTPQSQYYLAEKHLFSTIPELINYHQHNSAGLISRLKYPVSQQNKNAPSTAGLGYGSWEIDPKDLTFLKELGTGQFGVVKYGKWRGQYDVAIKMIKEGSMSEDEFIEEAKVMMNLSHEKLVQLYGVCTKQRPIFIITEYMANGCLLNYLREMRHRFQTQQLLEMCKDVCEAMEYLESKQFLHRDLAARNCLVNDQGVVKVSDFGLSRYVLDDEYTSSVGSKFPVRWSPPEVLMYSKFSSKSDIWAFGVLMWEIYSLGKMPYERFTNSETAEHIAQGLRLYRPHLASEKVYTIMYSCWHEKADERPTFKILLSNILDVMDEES

A word on the IC50: it is the concentration at which inhibition is half-maximal. Take `CC(C)(C)C=C(C#N)C(=O)N1CCC[C@H]1Cc1nc(-c2ccc(Oc3ccccc3)cc2F)c2c(N)nccn12` [Compound 16, (S)-2-(2-((8-amino-1-(2-fluoro-4-phenoxyphenyl)imidazo[1,5-a]pyrazin-3-yl)methyl)pyrrolidine-1-carbonyl)-4,4-dimethylpent-2-enenitrile]: the IC50 was 1.7 nM in assay [1] and 931 nM in assay [2]. In turn, `CC(C)(C=C(C#N)C(=O)N1CCC[C@@H](n2nc(-c3ccc(Oc4ccccc4)cc3F)c3c(N)nccc32)C1)N1CCN(C2COC2)CC1` [Compound 1, (R)-2-(3-(4-amino-3-(2-fluoro-4-phenoxyphenyl)-1H-pyrazolo[4,3-c]pyridin-1-yl)piperidine-1-carbonyl)-4-methyl-4-(4-(oxetan-3-yl)piperazin-1-yl)pent-2-enenitrile] came in with an IC50 in assay [2] of 109 nM.

Turning to `CC(C)(C=C(C#N)C(=O)N1CCC[C@H]1Cn1nc(-c2ccc(Oc3ccccc3)cc2F)c2c(N)nccc21)N1CCOCC1` [Compound 22, (S)-2-(2-((4-amino-3-(2-fluoro-4-phenoxyphenyl)-1H-pyrazolo[4,3-c]pyridin-1-yl)methyl)pyrrolidine-1-carbonyl)-4-methyl-4-morpholinopent-2-enenitrile], the IC50 in assay [1] was found to be 2.5 nM; in assay [2] it was 511 nM. As for `CN1CCN(C(C)(C)/C=C(\C#N)C(=O)N2CCC[C@@H](n3nc(-c4ccc(Oc5ccccc5)cc4F)c4c(N)nccc43)C2)CC1` [Compound 10, (R)-2-(3-(4-amino-3-(2-fluoro-4-phenoxyphenyl)-1H-pyrazolo[4,3-c]pyridin-1-yl)piperidine-1-carbonyl)-4-methyl-4-(4-methylpiperazin-1-yl)pent-2-enenitrile], the figures for the IC50 in assay [1] and in assay [2] were 1.9 nM and 289 nM, respectively. On to `CN1CCN(C(C)(C)C=C(C#N)C(=O)N2CCC[C@H]2Cn2nc(-c3ccc(Oc4ccccc4)cc3F)c3c(N)nccc32)CC1` [Compound 12, (S)-2-(2-((4-amino-3-(2-fluoro-4-phenoxyphenyl)-1H-pyrazolo[4,3-c]pyridin-1-yl)methyl)pyrrolidine-1-carbonyl)-4-methyl-4-(4-methylpiperazin-1-yl)pent-2-enenitrile], for which the results for the half-inhibitory concentration (IC50) in assay [1] and in assay [2] were 14 nM and 874 nM, respectively. As for `CC(C)(C=C(C#N)C(=O)N1CCC[C@@H](n2nc(-c3ccc(Oc4ccccc4)cc3F)c3c(N)nccc32)C1)N1CCNC(=O)C1` [Compound 24, (R)-2-(3-(4-amino-3-(2-fluoro-4-phenoxyphenyl)-1H-pyrazolo[4,3-c]pyridin-1-yl)piperidine-1-carbonyl)-4-methyl-4-(3-oxopiperazin-1-yl)pent-2-enenitrile], the IC50 in assay [1] amounted to 1.7 nM; in assay [2] it was 577 nM.

In assay [2], `CC(C)(C=C(C#N)C(=O)N1CCC[C@@H](n2nc(-c3ccc(Oc4ccccc4)cc3F)c3c(N)nccc32)C1)N1CCN(C2(C)COC2)CC1` [Compound 7, (R)-2-(3-(4-amino-3-(2-fluoro-4-phenoxyphenyl)-1H-pyrazolo[4,3-c]pyridin-1-yl)piperidine-1-carbonyl)-4-methyl-4-(4-(3-methyloxetan-3-yl)piperazin-1-yl)pent-2-enenitrile] showed an IC50 of 114 nM. `CC(C)(C=C(C#N)C(=O)N1CCC[C@@H](c2nc(-c3ccc(Oc4ccccc4)cc3)c3c(N)nccn23)C1)N1CCN2C(=O)CC[C@@H]2C1` [Compound 65, 2-((R)-3-(8-amino-1-(4-phenoxyphenyl)imidazo[1,5-a]pyrazin-3-yl)piperidine-1-carbonyl)-4-methyl-4-((R)-6-oxohexahydropyrrolo[1,2-a]pyrazin-2(1H)-yl)pent-2-enenitrile]: the IC50 in assay [1] worked out at 0.6 nM.

Take `CN1CCN(C(C)(C)C=C(C#N)C(=O)N2CCC[C@@H](c3nc(-c4ccc(Oc5ccccc5)cc4)c4c(N)nccn34)C2)CC1=O` [Compound 52, (R)-2-(3-(8-amino-1-(4-phenoxyphenyl)imidazo[1,5-a]pyrazin-3-yl)piperidine-1-carbonyl)-4-methyl-4-(4-methyl-3-oxopiperazin-1-yl)pent-2-enenitrile]: in assay [1], the IC50 came out at 1.8 nM. `CN(C1COC1)C(C)(C)C=C(C#N)C(=O)N1CCC[C@@H](n2nc(-c3ccc(Oc4ccccc4)cc3F)c3c(N)nccc32)C1` [Compound 14, (R)-2-(3-(4-amino-3-(2-fluoro-4-phenoxyphenyl)-1H-pyrazolo[4,3-c]pyridin-1-yl)piperidine-1-carbonyl)-4-methyl-4-(methyl(oxetan-3-yl)amino)pent-2-enenitrile] came in with an IC50 in assay [2] of 181 nM. With `CC(=O)N1CCN(C(C)(C)C=C(C#N)C(=O)N2CCC[C@@H](c3nc(-c4ccc(Oc5ccccc5)cc4F)c4c(N)nccn34)C2)CC1` [Compound 59, (R)-4-(4-acetylpiperazin-1-yl)-2-(3-(8-amino-1-(2-fluoro-4-phenoxyphenyl)imidazo[1,5-a]pyrazin-3-yl)piperidine-1-carbonyl)-4-methylpent-2-enenitrile], the IC50 in assay [1] was 1.4 nM.

Turning to `CCN1CCN(C(C)(C)C=C(C#N)C(=O)N2CCC[C@H]2Cn2nc(-c3ccc(Oc4ccccc4)cc3F)c3c(N)nccc32)CC1=O` [Compound 31, (S)-2-(2-((4-amino-3-(2-fluoro-4-phenoxyphenyl)-1H-pyrazolo[4,3-c]pyridin-1-yl)methyl)pyrrolidine-1-carbonyl)-4-(4-ethyl-3-oxopiperazin-1-yl)-4-methylpent-2-enenitrile], in assay [1], the IC50 was 11.5 nM. In the case of `CC1(C=C(C#N)C(=O)N2CCC[C@@H](n3nc(-c4ccc(Oc5ccccc5)cc4)c4c(N)nccc43)C2)CCN(C2COC2)CC1` [Compound 42, (R)-2-(3-(4-amino-3-(4-phenoxyphenyl)-1H-pyrazolo[4,3-c]pyridin-1-yl)piperidine-1-carbonyl)-3-(4-methyl-1-(oxetan-3-yl)piperidin-4-yl)acrylonitrile], in assay [1], the IC50 was found to be 2.6 nM.

Consider `COC(=O)N1CCN(C(C)(C)C=C(C#N)C(=O)N2CCC[C@@H](c3nc(-c4ccc(Oc5ccccc5)cc4F)c4c(N)nccn34)C2)CC1` [Compound 58, (R)-methyl 4-(5-(3-(8-amino-1-(2-fluoro-4-phenoxyphenyl)imidazo[1,5-a]pyrazin-3-yl)piperidin-1-yl)-4-cyano-2-methyl-5-oxopent-3-en-2-yl)piperazine-1-carboxylate], for which the IC50 in assay [1] came to 2.8 nM. Same read-out and setting: to `CC(C)(C=C(C#N)C(=O)N1CCC[C@@H](c2nc(-c3ccc(Oc4ccccc4)cc3F)c3c(N)nccn23)C1)N1CCN2C(=O)CC[C@@H]2C1` [Compound 63, 2-((R)-3-(8-amino-1-(2-fluoro-4-phenoxyphenyl)imidazo[1,5-a]pyrazin-3-yl)piperidine-1-carbonyl)-4-methyl-4-((R)-6-oxohexahydropyrrolo[1,2-a]pyrazin-2(1H)-yl)pent-2-enenitrile] belongs 0.9 nM; to `CN1CCN(C(C)(C)C=C(C#N)C(=O)N2CCC[C@H]2Cn2nc(-c3ccc(C(=O)Nc4ccccn4)cc3)c3c(N)nccc32)CC1` [Compound 20, (S)-4-(4-amino-1-((1-(2-cyano-4-methyl-4-(4-methylpiperazin-1-yl)pent-2-enoyl)pyrrolidin-2-yl)methyl)-1H-pyrazolo[4,3-c]pyridin-3-yl)-N-(pyridin-2-yl)benzamide], 19.1 nM. `CC1(C=C(C#N)C(=O)N2CCC[C@@H](n3nc(-c4ccc(Oc5ccccc5)cc4)c4c(N)nccc43)C2)CCOCC1` [Compound 43, (R)-2-(3-(4-amino-3-(4-phenoxyphenyl)-1H-pyrazolo[4,3-c]pyridin-1-yl)piperidine-1-carbonyl)-3-(4-methyltetrahydro-2H-pyran-4-yl)acrylonitrile]: the IC50 in assay [1] came out at 2 nM. The same measure, in the same setting: to `CN1CCN(C(=O)C(C#N)=CC2(C)CCOCC2)C[C@@H]1c1nc(-c2ccc(Oc3ccccc3)cc2)c2c(N)nccn12` [Compound 67, (R)-2-(3-(8-amino-1-(4-phenoxyphenyl)imidazo[1,5-a]pyrazin-3-yl)-4-methylpiperazine-1-carbonyl)-3-(4-methyltetrahydro-2H-pyran-4-yl)acrylonitrile] belongs 0.2 nM; to `CC1(C=C(C#N)C(=O)N2CCC[C@@H](n3nc(-c4ccc(Oc5ccccc5)cc4F)c4c(N)nccc43)C2)CCOCC1` [Compound 48, (R)-2-(3-(4-amino-3-(2-fluoro-4-phenoxyphenyl)-1H-pyrazolo[4,3-c]pyridin-1-yl)piperidine-1-carbonyl)-3-(4-methyltetrahydro-2H-pyran-4-yl)acrylonitrile], 3.1 nM; to `CC1(C=C(C#N)C(=O)N2CCC[C@@H](c3nc(-c4ccc(Oc5ccccc5)cc4)c4c(N)nccn34)C2)CCOCC1` [Compound 54, (R)-2-(3-(8-amino-1-(4-phenoxyphenyl)imidazo[1,5-a]pyrazin-3-yl)piperidine-1-carbonyl)-3-(4-methyltetrahydro-2H-pyran-4-yl)acrylonitrile], 1.7 nM. In the case of `CN1CCN(C(C)(C)C=C(C#N)C(=O)N2CCC[C@@H](n3nc(-c4ccc(Oc5ccccc5)cc4F)c4c(N)nccc43)C2)CC1=O` [Compound 72, (R)-2-(3-(4-amino-3-(2-fluoro-4-phenoxyphenyl)-1H-pyrazolo[4,3-c]pyridin-1-yl)piperidine-1-carbonyl)-4-methyl-4-(4-methyl-3-oxopiperazin-1-yl)pent-2-enenitrile], the IC50 in assay [1] worked out at 2 nM.
